Where “and” joins values, the source holds several entries; their conditions need not be identical. Identical values can stand only once. Toxic doses and inconclusive results are not listed. No stated cut-off is given here; in the data, active means T/C of 150% or more; inactive means T/C below 125%.
Test system: L1210 leukemia ip in BDF1 mice, survival T/C
Experiment: NCI In Vivo Anticancer Drug Screen. Data for tumor model L1210 Leukemia (intraperitoneal) in B6D2F1 (BDF1) mice
Settings: endpoint: mean survival time, higher = longer survival
In short: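 Tumor cells were implanted, animals were treated, and survival was followed. The result divides the treated measurement by the vehicle-control measurement.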

[1] = dose: 50.0 mg/kg/injection, schedule: Q01DX001 (ip), vehicle: Klucel (hydroxypropylcellulose) (HPC)
[2] = dose: 100.0 mg/kg/injection, schedule: Q01DX001 (ip), vehicle: Klucel (hydroxypropylcellulose) (HPC)
[3] = dose: 200.0 mg/kg/injection, schedule: Q01DX001 (ip), vehicle: Klucel (hydroxypropylcellulose) (HPC)
[4] = dose: 100.0 mg/kg/injection, schedule: Q01DX009 (ip), vehicle: saline
[5] = dose: 200.0 mg/kg/injection, schedule: Q01DX009 (ip), vehicle: saline
[6] = dose: 100.0 mg/kg/injection, schedule: Q01DX001 (ip), vehicle: carboxymethylcellulose (CMC)
[7] = dose: 200.0 mg/kg/injection, schedule: Q01DX001 (ip), vehicle: carboxymethylcellulose (CMC)
[8] = dose: 400.0 mg/kg/injection, schedule: Q01DX001 (ip), vehicle: carboxymethylcellulose (CMC)
[9] = dose: 25.0 mg/kg/injection, schedule: Q01DX009 (ip), vehicle: saline with Tween-80
[10] = dose: 50.0 mg/kg/injection, schedule: Q01DX009 (ip), vehicle: saline with Tween-80
[11] = dose: 100.0 mg/kg/injection, schedule: Q04DX003 (ip), vehicle: saline with Tween-80
[12] = dose: 200.0 mg/kg/injection, schedule: Q04DX003 (ip), vehicle: saline with Tween-80
[13] = dose: 400.0 mg/kg/injection, schedule: Q04DX003 (ip), vehicle: saline with Tween-80
[14] = dose: 100.0 mg/kg/injection, schedule: Q04DX003 (ip), vehicle: Klucel (hydroxypropylcellulose) (HPC)
[15] = dose: 100.0 mg/kg/injection, schedule: Q01DX001 (ip), vehicle: saline
[16] = dose: 200.0 mg/kg/injection, schedule: Q01DX001 (ip), vehicle: saline
[17] = dose: 400.0 mg/kg/injection, schedule: Q01DX001 (ip), vehicle: saline
[18] = dose: 100.0 mg/kg/injection, schedule: Q01DX009 (ip), vehicle: Klucel (hydroxypropylcellulose) (HPC)
[19] = dose: 200.0 mg/kg/injection, schedule: Q01DX009 (ip), vehicle: Klucel (hydroxypropylcellulose) (HPC)
[20] = dose: 200.0 mg/kg/injection, schedule: Q04DX003 (ip), vehicle: Klucel (hydroxypropylcellulose) (HPC)
[21] = dose: 400.0 mg/kg/injection, schedule: Q01DX009 (ip), vehicle: Klucel (hydroxypropylcellulose) (HPC)
[22] = dose: 400.0 mg/kg/injection, schedule: Q04DX003 (ip), vehicle: Klucel (hydroxypropylcellulose) (HPC)
[23] = dose: 50.0 mg/kg/injection, schedule: Q01DX001 (ip), vehicle: saline

Measured: T/C

COCP(=O)(O)O
inactive: dose: 100.0 mg/kg/injection, schedule: Q04DX002 (ip), vehicle: saline 96 % of control | dose: 200.0 mg/kg/injection, schedule: Q04DX002 (ip), vehicle: saline 100 % of control

O=CC1c2ccccc2C(C=O)c2c1ccc1ccccc21 (stereo not drawn)
inactive: [1] 93 % of control | [2] 91 % of control | [3] 100 % of control

C1CN(CCN2CCOCC2)CCO1
inactive: [4] 100 % of control | [5] 93 % of control | dose: 400.0 mg/kg/injection, schedule: Q01DX009 (ip), vehicle: saline 96 % of control

COc1ccc(NC(=O)N(O)C2(C#N)CCCCC2)cc1
inactive: [6] 98 % of control | [7] 94 % of control | [8] 88 % of control

CC1(C)N=C(N)N=C(N)N1c1ccc(OCCCCNC(=O)Nc2cccc(S(=O)(=O)F)c2)c(Cl)c1
inactive: [9] 100 % of control | [10] 108 % of control | dose: 100.0 mg/kg/injection, schedule: Q01DX009 (ip), vehicle: saline with Tween-80 116 % of control

Nc1cccc2c1C(=O)c1cccc(Cl)c1C2=O
inactive: [11] 94 % of control | [12] 101 % of control | [13] 94 % of control

NNc1cc(NN)c2[nH]cnc2n1
inactive: dose: 25.0 mg/kg/injection, schedule: Q01DX001 (ip), vehicle: Klucel (hydroxypropylcellulose) (HPC) 100 % of control | dose: 25.0 mg/kg/injection, schedule: Q04DX003 (ip), vehicle: Klucel (hydroxypropylcellulose) (HPC) 102 % of control | [1] 93 % of control | dose: 50.0 mg/kg/injection, schedule: Q04DX003 (ip), vehicle: Klucel (hydroxypropylcellulose) (HPC) 105 % of control | [2] 100 % of control and 108 % of control | [14] 112 % of control

C/C=C/CC1(CCCC)C(=O)NC(=O)NC1=O
inactive: dose: 75.0 mg/kg/injection, schedule: Q01DX001 (ip), vehicle: saline 106 % of control | dose: 150.0 mg/kg/injection, schedule: Q01DX001 (ip), vehicle: saline 102 % of control

O=C(O)C(Cc1ccc(O)c([N+](=O)[O-])c1)N1C(=O)c2ccccc2C1=O (stereo not drawn)
inactive: [15] 101 % of control | [16] 95 % of control | [17] 95 % of control

CCOc1ccccc1-n1c(-c2ccc([N+](=O)[O-])cc2)csc1=NC(=O)c1cccc([N+](=O)[O-])c1
inactive: [2] 101 % of control | [18] 96 % of control and 100 % of control and 106 % of control | dose: 100.0 mg/kg/injection, schedule: Q04DX002 (ip), vehicle: Klucel (hydroxypropylcellulose) (HPC) 94 % of control and 98 % of control | [14] 101 % of control | [3] 101 % of control | [19] 93 % of control (2×) and 95 % of control | dose: 200.0 mg/kg/injection, schedule: Q04DX002 (ip), vehicle: Klucel (hydroxypropylcellulose) (HPC) 97 % of control and 98 % of control | [20] 95 % of control | dose: 400.0 mg/kg/injection, schedule: Q01DX001 (ip), vehicle: Klucel (hydroxypropylcellulose) (HPC) 98 % of control | [21] 95 % of control and 97 % of control (2×) | dose: 400.0 mg/kg/injection, schedule: Q04DX002 (ip), vehicle: Klucel (hydroxypropylcellulose) (HPC) 96 % of control and 97 % of control | [22] 93 % of control

NOCc1csc(N)n1
inactive: [15] 101 % of control | [16] 95 % of control | [17] 104 % of control

OC(CC(O)(C(F)(F)F)C(F)(F)F)c1cccs1 (stereo not drawn)
inactive: [11] 106 % of control | [12] 100 % of control | [13] 101 % of control

CC(CCc1ccccc1)NN (stereo not drawn)
inactive: dose: 3.12 mg/kg/injection, schedule: Q01DX009 (ip), vehicle: saline with Tween-80 98 % of control | dose: 6.25 mg/kg/injection, schedule: Q01DX009 (ip), vehicle: saline with Tween-80 96 % of control | dose: 12.5 mg/kg/injection, schedule: Q01DX009 (ip), vehicle: saline with Tween-80 90 % of control | [9] 96 % of control | dose: 25.0 mg/kg/injection, schedule: Q04DX003 (ip), vehicle: saline 100 % of control | [10] 91 % of control | dose: 50.0 mg/kg/injection, schedule: Q04DX003 (ip), vehicle: saline 100 % of control

N=C(N=C(N)N)N(Cc1ccccc1)Cc1ccccc1
inactive: dose: 6.25 mg/kg/injection, schedule: Q01DX009 (ip), vehicle: water 103 % of control | dose: 6.25 mg/kg/injection, schedule: Q04DX003 (ip), vehicle: water 97 % of control | dose: 12.5 mg/kg/injection, schedule: Q01DX001 (ip), vehicle: water 107 % of control | dose: 12.5 mg/kg/injection, schedule: Q01DX009 (ip), vehicle: water 101 % of control | dose: 12.5 mg/kg/injection, schedule: Q04DX003 (ip), vehicle: water 103 % of control | dose: 25.0 mg/kg/injection, schedule: Q01DX001 (ip), vehicle: water 100 % of control | dose: 25.0 mg/kg/injection, schedule: Q01DX009 (ip), vehicle: water 101 % of control | dose: 25.0 mg/kg/injection, schedule: Q04DX003 (ip), vehicle: water 96 % of control

C=NNC(=O)c1ccc(OC)cc1
inactive: dose: 50.0 mg/kg/injection, schedule: Q01DX001 (ip), vehicle: carboxymethylcellulose (CMC) 96 % of control | [6] 96 % of control | [7] 93 % of control | [8] 93 % of control

CCCCOCCOP(OCCOCCCC)OCCOCCCC
inactive: [18] 101 % of control | [19] 102 % of control | [21] 90 % of control

CCOC(=O)N1CCC2C(CC3CC2C3(C)C)N1C(=O)OCC (stereo not drawn)
inactive: dose: 50.0 mg/kg/injection, schedule: Q01DX009 (ip), vehicle: Klucel (hydroxypropylcellulose) (HPC) 103 % of control | [18] 101 % of control | [14] 97 % of control | [19] 101 % of control | [20] 101 % of control | [22] 99 % of control

C[N+](C)(C)Cc1ccc2ccccc2c1Br
inactive: [23] 97 % of control

Cc1cccc(CN)n1
inactive: dose: 50.0 mg/kg/injection, schedule: Q01DX009 (ip), vehicle: saline 98 % of control | [4] 98 % of control | dose: 100.0 mg/kg/injection, schedule: Q04DX003 (ip), vehicle: saline 104 % of control | [5] 97 % of control | dose: 200.0 mg/kg/injection, schedule: Q04DX003 (ip), vehicle: saline 104 % of control

CN=C(N)c1cccc(NC(=O)c2ccc(C(=O)Nc3cccc(C(N)=NC)c3)cc2)c1
inactive: dose: 15.0 mg/kg/injection, schedule: Q01DX Z (ip), vehicle: saline 109 % of control | dose: 30.0 mg/kg/injection, schedule: Q01DX Z (ip), vehicle: saline 93 % of control

CC(=O)OCC1OC(n2cnc3c(Cl)nc(Cl)nc32)CC1OC(C)=O (stereo not drawn)
inactive: [15] 101 % of control | [16] 101 % of control | [17] 101 % of control

CC(C)(C)NC(=O)Nc1cccc(OC(=O)NC(C)(C)C)c1
inactive: [11] 90 % of control | [12] 87 % of control | [13] 87 % of control

CCOC(OCC)c1ccccc1
inactive: [23] 113 % of control | [15] 115 % of control | [16] 109 % of control | [17] 113 % of control

CCOC(=O)CC1=C(c2ccc(OC)cc2)c2ccc(OC)cc2C1=O
inactive: [1] 98 % of control | [2] 98 % of control | [3] 95 % of control

C=CCOc1cccc(C(C)(C)C)c1
inactive: dose: 75.0 mg/kg/injection, schedule: Q04DX003 (ip), vehicle: saline with Tween-80 103 % of control | dose: 150.0 mg/kg/injection, schedule: Q04DX003 (ip), vehicle: saline with Tween-80 101 % of control | dose: 300.0 mg/kg/injection, schedule: Q04DX003 (ip), vehicle: saline with Tween-80 92 % of control
